Among the test systems are SW-620 colon; NCI/ADR-RES ovarian; HS 578T breast; ACHN renal; SNB-19 CNS; SK-MEL-2 melanoma; DU-145 prostate; HCC-2998 colon; HCT-116 colon; SNB-75 CNS.
Assay in all cases: NCI tumour cell line growth inhibition, 48 h

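Tested at 5 concentrations; 48 h exposure; 96-well plates; endpoints linearly interpolated, else capped at highest concentration. TGI denotes the concentration required for complete inhibition of growth.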

For `CCOC(=O)C1=CC(C)(C(=O)OCC)Nc2c(nc(OC)n(C)c2=O)N1` (configuration not stated), the TGI in the assay with SW-620 colon, in the assay with NCI/ADR-RES ovarian, in the assay on HS 578T breast, in the assay with ACHN renal, with SNB-19 CNS and with SK-MEL-2 melanoma was greater than 10 µM in each case. Also, the TGI with DU-145 prostate, with HCC-2998 colon, in the assay with HCT-116 colon and with SNB-75 CNS was greater than 10 µM each time.
With `CC(C)C1OC23CCCCC2C(C#N)(C#N)C1(C#N)C(=N)O3` (configuration not stated), the TGI in the assay on SW-620 colon was 99.3 µM; in the assay with NCI/ADR-RES ovarian, greater than 100 µM; in the assay on HS 578T breast it was 42.3 µM; in the assay with ACHN renal, greater than 100 µM; in the assay with SNB-19 CNS, greater than 100 µM; in the assay on SK-MEL-2 melanoma, 76 µM. Moreover, the TGI in the assay on DU-145 prostate was 94.8 µM; in the assay with HCC-2998 colon, 29.6 µM; in the assay with HCT-116 colon, 39.8 µM; in the assay on SNB-75 CNS, greater than 100 µM.
With `S=C(c1c[nH]c2ccccc12)N1CCOCC1`, the TGI in the assay with SW-620 colon, in the assay with NCI/ADR-RES ovarian, in the assay with HS 578T breast, in the assay with ACHN renal, with SNB-19 CNS and with SK-MEL-2 melanoma was greater than 100 µM in each case. Further, the TGI with DU-145 prostate is greater than 100 µM; in the assay with HCT-116 colon, greater than 100 µM; in the assay with SNB-75 CNS, 74 µM.
For `CC(C)(C)c1cc(C(P(=O)(c2ccccc2)c2ccccc2)P(=O)(c2ccccc2)c2ccccc2)cc(C(C)(C)C)c1O`, the TGI with SW-620 colon was greater than 9.23 µM; in the assay on NCI/ADR-RES ovarian it was 6.16 µM; in the assay with HS 578T breast it was 6.27 µM; with ACHN renal, greater than 10 µM; in the assay on SNB-19 CNS, greater than 10 µM; with SK-MEL-2 melanoma, 3.88 µM. The TGI was greater than 10 µM in the assay with DU-145 prostate, 4.45 µM in the assay on HCC-2998 colon, 3.23 µM in the assay with HCT-116 colon and 7.39 µM in the assay on SNB-75 CNS.
In the case of `CC(=O)c1c2c(cc3c1CC1(Cc4ccccc4C1=O)C3)CCC2` (configuration not stated), the TGI with SW-620 colon was greater than 100 µM; with NCI/ADR-RES ovarian, 53.3 µM; in the assay with HS 578T breast, greater than 100 µM; with ACHN renal, greater than 100 µM; with SNB-19 CNS, greater than 100 µM; in the assay with SK-MEL-2 melanoma, 92 µM. Further, the TGI was greater than 100 µM in the assay on DU-145 prostate, greater than 100 µM with HCC-2998 colon, 66.6 µM in the assay on HCT-116 colon and greater than 100 µM in the assay with SNB-75 CNS.
As for `CCc1nc(N)nc(N)c1-c1ccc(Cl)c(Cl)c1`, the TGI in the assay with SW-620 colon, with NCI/ADR-RES ovarian, in the assay with HS 578T breast, with ACHN renal, with SNB-19 CNS and with SK-MEL-2 melanoma was greater than 100 µM in each case. The TGI with DU-145 prostate, in the assay with HCC-2998 colon, in the assay with HCT-116 colon and in the assay with SNB-75 CNS was greater than 100 µM throughout.
As for `COc1cc(Nc2cnc3cc(F)c(F)cc3n2)cc(OC)c1OC`, the TGI in the assay with SW-620 colon, with NCI/ADR-RES ovarian, in the assay on HS 578T breast, with ACHN renal, with SNB-19 CNS and with SK-MEL-2 melanoma was greater than 100 µM throughout. In addition, the TGI in the assay on DU-145 prostate, in the assay on HCT-116 colon and in the assay with SNB-75 CNS was greater than 100 µM throughout.
In the case of `CNn1c(-c2ccccc2)n[nH]c1=O`, the TGI in the assay on SW-620 colon, in the assay on NCI/ADR-RES ovarian, in the assay on HS 578T breast, with ACHN renal, in the assay with SNB-19 CNS and with SK-MEL-2 melanoma was greater than 100 µM throughout. In addition, the TGI in the assay on DU-145 prostate, in the assay with HCC-2998 colon, in the assay on HCT-116 colon and in the assay with SNB-75 CNS was greater than 100 µM in each case.
`CCCCCCCCCCCCCCCCCCNc1ccn(C2OC(COP(=O)(O)OCC3OC(n4cc(C)c(=O)[nH]c4=O)CC3O)C(O)C2O)c(=O)n1` (configuration not stated): the TGI with SW-620 colon came out at 28.5 µM; in the assay with NCI/ADR-RES ovarian, 31.3 µM; in the assay on HS 578T breast it was 42.4 µM; with ACHN renal it was 44.4 µM; with SNB-19 CNS, 29.8 µM; with DU-145 prostate, 35.8 µM. The TGI in the assay on HCC-2998 colon is 32.6 µM; with HCT-116 colon, 30.8 µM; in the assay on SNB-75 CNS, 33 µM.
Take `Cc1nc2ccccc2c(=O)n1NC(=O)c1ccc(CS)cc1`: the TGI with SW-620 colon is 21.7 µM; in the assay with NCI/ADR-RES ovarian, greater than 100 µM; with HS 578T breast, 95.4 µM; with ACHN renal, 27 µM; in the assay with SNB-19 CNS, greater than 100 µM; in the assay with DU-145 prostate, 88.2 µM. Moreover, the TGI in the assay with HCC-2998 colon was 45.8 µM; in the assay on HCT-116 colon it was 16.9 µM; in the assay on SNB-75 CNS, greater than 100 µM.
As for `COC(=O)C(C)(NC(=O)C(CC(=O)OC(C)(C)C)NC(=O)OC(C)(C)C)c1ccccc1` (configuration not stated), the TGI in the assay with SW-620 colon, in the assay with NCI/ADR-RES ovarian, in the assay with HS 578T breast, in the assay with ACHN renal, in the assay with SNB-19 CNS and in the assay on DU-145 prostate was greater than 100 µM throughout. Further, the TGI in the assay on HCC-2998 colon, in the assay on HCT-116 colon and in the assay with SNB-75 CNS was greater than 100 µM each time.
For `COc1ccc2nc3ccc(OC)cc3c(S(=O)CCCl)c2c1` (configuration not stated), the TGI was 36.8 µM in the assay with NCI/ADR-RES ovarian; 6.02 µM in the assay on HS 578T breast; 3.62 µM with ACHN renal; greater than 59.3 µM with SNB-19 CNS; 35.3 µM in the assay on SK-MEL-2 melanoma; 4.66 µM in the assay with DU-145 prostate. The TGI with HCC-2998 colon amounted to 46.7 µM; with HCT-116 colon, 3.39 µM; in the assay on SNB-75 CNS it was 33.1 µM.
On to `NC(=O)C(N)Cc1ccc(O)cn1` (configuration not stated), for which the TGI in the assay on SW-620 colon, in the assay with NCI/ADR-RES ovarian, in the assay on HS 578T breast, with ACHN renal, in the assay with SNB-19 CNS and in the assay with DU-145 prostate was greater than 100 µM each time. Moreover, the TGI with HCC-2998 colon, in the assay on HCT-116 colon and in the assay with SNB-75 CNS was greater than 100 µM in each case.
Turning to `CC(=O)Nc1cc(C(=O)Nc2cc(C(=O)N3CC(CCl)c4c3cc(N)c3ccccc43)nn2C)nn1C` (configuration not stated), the TGI in the assay with NCI/ADR-RES ovarian was found to be 7.49 µM; in the assay with HS 578T breast it was 1.55 µM; in the assay with ACHN renal it was 0.0892 µM; in the assay on SNB-19 CNS, 3.14 µM; in the assay on SK-MEL-2 melanoma it was 0.427 µM; in the assay on DU-145 prostate it was 0.018 µM. Besides, the values for the TGI with HCC-2998 colon, in the assay with HCT-116 colon and in the assay on SNB-75 CNS were 0.491 µM, 0.412 µM and 0.0775 µM, respectively.

For the origin of these results see PubChem BioAssay (NCI).
